# Experimental data reported in patent publication US20250121087A1, “ANTIBODY-DRUG CONJUGATES COMPRISING ANTI-B7-H3 ANTIBODIES” (priority 2020, published 2025).
# Test system: JIMT-1 xenograft
# Experiment: In vivo efficacy, JIMT-1 tumor xenograft (tumor volume, body weight)
# Settings: control conjugate, 5 mg/kg i.v.; BALB/c nu/nu mice
# Description: T-20-AB2.1, T-23-AB2.1, T-Int-102-D1-5 AB2.1, and T-Int0112-AB2.1 were prepared with 20 mg scale reaction. After purification by HIC column, final samples were concentrated to 5-10 mg/ml protein.
# In vivo efficacy of T-20-AB2.1 and T-23-AB2.1 was measured by tumor xenograft studies in mice. Female BALB/c nu/nu were injected subcutaneously in the right flank with suspensions of 5×10^6 of JIMT-1 cells respectively in PBS. Mice were randomized into study groups when tumors reached approximately 150 mm^3. T-DM1 (5 mg/kg) and T-20-AB2.1 and T-23-AB2.1 conjugates (0.3 mg/kg, QW X^4) were given i.v. All treatment groups consisted of 6 to 10 animals per group, and tumor size was monitored twice weekly using caliper measurement. The tumor mass was calculated as volume=(width×width×length)/2.
substance,measurement,value
T-DM1,activity in JIMT-1 xenograft versus the conjugates of the disclosure,less active
